Test results: patent US7498343B2, “Mycobacterial inhibitors” (priority 2002, dated 2009)
Converted amounts (≈) assume the structure as drawn. Like-named read-outs stand apart in the source and are kept apart here.

Assays:
M. Smegmatis ATCC607 = experiment: In-vitro method for testing compounds for anti-bacterial activity against strain M. smegmatis ATCC607 (Alamar Blue growth inhibition); assay type: cell-based; details: M. smegmatis ATCC607, pIC50 = -logIC50, IC50 in M, 50% inhibitory concentration for bacterial growth, 48 hours incubation; for IC50: Mycolicibacterium smegmatis, ATCC607, 48 h, read-out: pIC50 (converted)
Procedure, shortened: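 About 250 CFU/well M. smegmatis ATCC607 in Mueller-Hinton broth exposed to five-fold serial compound dilutions, 48 h at 37 °C, humidified 5% CO2. Growth read by Alamar Blue fluorescence (ex 530/em 590 nm) after 2 h further incubation; % growth inhibition calculated.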

[1] = test system: Mycobacterium tuberculosis (strain H37RV); experiment: In-vitro method for testing compounds against M. tuberculosis (resazurin growth inhibition, MIC); assay type: cell-based; details: MIC data representing IC90's, 7 days incubation, resazurin fluorescence
[2] = Mycobacterium tuberculosis, H37RV, 168 h, read-out: MIC

## CN(C)CCC(O)(c1ccccc1)C(c1ccccc1)c1cnc2ccc(Br)cc2c1 (stereo not drawn) [Compound 7]
M. Smegmatis ATCC607
  pIC50: 4.6
other
  melting point: 98 °C
[1]
  MIC: 47.54 microgram/ml

## COc1nc2ccc(Br)cc2cc1C(c1ccccc1)C(O)(CCN)c1ccccc1 (stereo not drawn) [Compound 9]
M. Smegmatis ATCC607
  pIC50: 4.5
other
  melting point: 204 °C
[1]
  MIC: 37.92 microgram/ml

## COc1nc2ccc(Br)cc2cc1C(c1ccc(C)cc1)C(O)(CCN(C)C)c1cccc2ccccc12 (stereo not drawn) [Compound 72]
M. Smegmatis ATCC607
  pIC50: 6.9
other
  melting point: 178 °C
[1]
  MIC: 3.59 microgram/ml

## COc1nc2ccc(Br)cc2cc1C(c1ccccc1)C(O)(CC[N+](C)(C)[O-])c1ccccc1 (stereo not drawn) [Compound 11]
M. Smegmatis ATCC607
  IC50: 25100 nM
other
  melting point: 208 °C
[1]; [2]
  MIC: 41.4 µg/mL (≈ 79.4 µM)

## COc1nc2ccc(Br)cc2cc1C(c1ccccc1)C(O)(CCN(C)C)c1cccc(F)c1F (stereo not drawn) [Compound 113]
M. Smegmatis ATCC607
  pIC50: 8.6
other
  melting point: 185 °C
[1]
  MIC: 0.27 microgram/ml

## COc1nc2ccc(Br)cc2cc1C(c1ccccc1)C(O)(CC[N+](C)(C)C)c1ccccc1.[I-] (stereo not drawn) [Compound 10]
M. Smegmatis ATCC607
  IC50: 2510 nM
other
  melting point: 198 °C
[1]; [2]
  MIC: 10.3 µg/mL

## COc1nc2ccc(Br)cc2cc1C(c1ccccc1)C(O)(CC[N+](C)(C)[O-])c1cccc2ccccc12 (stereo not drawn) [Compound 99]
M. Smegmatis ATCC607
  IC50: 12.6 nM
other
  melting point: 218 °C
[1]; [2]
  MIC: 9.06 µg/mL (≈ 15.9 µM)

## COc1nc2ccc(Br)cc2cc1C(c1ccccc1)C(O)(CCN(C)C)c1cccc(F)c1F (stereo not drawn) [Compound 114]
M. Smegmatis ATCC607
  pIC50: 5.9
other
  melting point: 210 °C
[1]
  MIC: 43.01 microgram/ml

## COc1nc2ccc(C)cc2cc1C(c1ccccc1)C(O)(CCN(C)C)c1ccccc1 (single isomer, unassigned) [Compound 23]
M. Smegmatis ATCC607
  pIC50: 6.4
[1]
  MIC: 8.79 microgram/ml

## CCOc1nc2ccc(Br)cc2cc1C(c1ccccc1)C(O)(CCN(C)C)c1ccccc1 (stereo not drawn) [Compound 6]
M. Smegmatis ATCC607
  pIC50: 5.8
[1]
  MIC: 8.23 microgram/ml

## COc1nc2ccc(Br)cc2cc1C(c1ccccc1)C(O)(CCN(C)C)C1CCN(C(=O)c2ccccc2)CC1 (single isomer, unassigned) [Compound 202]
M. Smegmatis ATCC607
  pIC50: 4.8
[1]
  MIC: 48.98 microgram/ml

## COc1nc2ccc(Br)cc2cc1C(c1ccc(C)cc1)C(O)(CCN(C)C)c1cccc2ccccc12 (stereo not drawn) [Compound 71]
M. Smegmatis ATCC607
  pIC50: 8.5
other
  melting point: 174 °C
[1]
  MIC: 0.14 microgram/ml

## CCOc1nc2ccc(Br)cc2cc1C(c1ccccc1)C(O)(CCN(C)C)c1ccccc1 (stereo not drawn) [Compound 5]
M. Smegmatis ATCC607
  pIC50: 7.8
other
  melting point: 162 °C
[1]
  MIC: 0.33 microgram/ml

## COc1ccc2nc(OC)c(C(c3ccccc3)C(O)(CCN(C)C)c3cccc(F)c3)cc2c1 (single isomer, unassigned) [Compound 134]
M. Smegmatis ATCC607
  pIC50: 6.5
[1]
  MIC: 7.52 microgram/ml

## COc1nc2ccc(Br)cc2cc1C(c1ccccc1)C(O)(CCCN1CCCC1)c1cccc2ccccc12 (single isomer, unassigned) [Compound 194]
M. Smegmatis ATCC607
  pIC50: 4.9
[1]
  MIC: 47.31 microgram/ml

## COc1nc2ccc(Br)cc2cc1C(c1ccccc1)C(O)(CCN1CCN(C)CC1)c1ccccc1 (racemic) [Compound 52]
M. Smegmatis ATCC607
  pIC50: 6.4
[1]
  MIC: 7.06 microgram/ml

## COc1nc2cccc(Br)c2cc1C(c1ccccc1)C(O)(CCN(C)C)c1cccc2ccccc12 (single isomer, unassigned) [Compound 224]
M. Smegmatis ATCC607
  pIC50: 4.9
[1]
  MIC: 44.13 microgram/ml

## COc1nc2ccc(Br)cc2cc1C(c1ccccc1)C(O)(CCN1CCN(C)CC1)c1cc(Br)cc2ccccc12 (single isomer, unassigned) [Compound 152]
M. Smegmatis ATCC607
  pIC50: 5.8
[1]
  MIC: 10.93 microgram/ml

## CN(C)CCC(O)(c1ccccc1)C(c1ccccc1)c1cnc2ccc(Br)cc2c1 (stereo not drawn) [Compound 8]
M. Smegmatis ATCC607
  pIC50: 5.7
other
  melting point: 180 °C
[1]; [2]
  MIC: 23.8 µg/mL (≈ 50.1 µM)

## COc1nc2ccc(Br)cc2cc1C(c1ccccc1)C(O)(CCN1CCCCC1)c1cccc2ccccc12 (stereo not drawn) [Compound 145]
M. Smegmatis ATCC607
  pIC50: 5.3
[1]; [2]
  MIC: 59.6 µg/mL (≈ 100 µM)
